Tested on: DMS-114 complex spheroids with HUVEC/MSC, growth % test/control
Assay: Anticancer human tumor DMS-114 cell line growth inhibition [AhR];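 further: spheroids exposed to agents for 7 days before readout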;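 on viability, T/C: 100% = DMSO vehicle control wells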
Settings: for IC50: curve of first compound; for viability, T/C: stronger effect = lower value
Outline: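 Complex tumor spheroids co-cultured with HUVEC and human MSC stroma; AhR antagonists tested in combination with standard-of-care and investigational agents. Top concentration at or near clinical Cmax (else 10 microM), half-log dilutions; growth expressed as percent test/control.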

[1] = second compound 0.1 µM, first compound 0.0316 µM
[2] = second compound 0.1 µM, first compound 0.1 µM
[3] = second compound 0.1 µM, first compound 0.316 µM
[4] = second compound 0.1 µM, first compound 1 µM
[5] = second compound 0.316 µM, first compound 0.0316 µM
[6] = second compound 0.316 µM, first compound 0.1 µM
[7] = second compound 0.316 µM, first compound 0.316 µM
[8] = second compound 0.316 µM, first compound 1 µM
[9] = second compound 1 µM, first compound 0.0316 µM
[10] = second compound 1 µM, first compound 0.1 µM
[11] = second compound 1 µM, first compound 0.316 µM
[12] = second compound 1 µM, first compound 1 µM
[13] = second compound 3.16 µM, first compound 0.0316 µM
[14] = second compound 3.16 µM, first compound 0.1 µM
[15] = second compound 3.16 µM, first compound 0.316 µM
[16] = second compound 3.16 µM, first compound 1 µM
[17] = second compound 10 µM, first compound 0.0316 µM
[18] = second compound 10 µM, first compound 0.1 µM
[19] = second compound 10 µM, first compound 0.316 µM
[20] = second compound 10 µM, first compound 1 µM

Row | SMILES | IC50 (second compound 0.1 µM) [µM] | IC50 (second compound 0.316 µM) [µM] | IC50 (second compound 1 µM) [µM] | IC50 (second compound 3.16 µM) [µM] | IC50 (second compound 10 µM) [µM] | viability, T/C [1] [%] | viability, T/C [2] [%] | viability, T/C [3] [%] | viability, T/C [4] [%] | viability, T/C [5] [%] | viability, T/C [6] [%] | viability, T/C [7] [%] | viability, T/C [8] [%] | viability, T/C [9] [%] | viability, T/C [10] [%] | viability, T/C [11] [%] | viability, T/C [12] [%] | viability, T/C [13] [%] | viability, T/C [14] [%] | viability, T/C [15] [%] | further results
1 | CC1COCCN1c1cc(-c2ccnn2C)c2ccnc(-c3ccn[nH]3)c2n1 (stereo not given) + CC(CO)NC(=O)c1cc(-c2ccc(Cl)cc2)nn(-c2cnn(C)c2)c1=O | 0.0508 | 0.065 | 0.0342 | 0.0336 | 0.0211 | 59.1 | 34.4 | 27.9 | 15.8 | 60.1 | 42.7 | 26.2 | 15.2 | 51.8 | 34.4 | 27.6 | 14.6 | 49.4 | 31.6 | 22.3 | viability, T/C (second compound 0.1 µM, first compound 0.00316 µM): 90.1%; viability, T/C (second compound 0.1 µM, first compound 0.01 µM): 82%; viability, T/C (second compound 0.316 µM, first compound 0.00316 µM): 93%; viability, T/C (second compound 0.316 µM, first compound 0.01 µM): 89.1%; viability, T/C (second compound 1 µM, first compound 0.00316 µM): 85.3%; viability, T/C (second compound 1 µM, first compound 0.01 µM): 94.4%; viability, T/C (second compound 3.16 µM, first compound 0.00316 µM): 84.8%; viability, T/C (second compound 3.16 µM, first compound 0.01 µM): 73.7%; viability, T/C [16]: 13.9%; viability, T/C (second compound 10 µM, first compound 0.00316 µM): 86.8%; viability, T/C (second compound 10 µM, first compound 0.01 µM): 63.2%; viability, T/C [17]: 42.2%; viability, T/C [18]: 29.6%; viability, T/C [19]: 24.1%; viability, T/C [20]: 14.8%
2 | COc1ccc([C@@H](O)c2cc(-c3ncnc4cc(N5CCOCC5)ccc34)c(F)cc2Cl)nn1 + CC(CO)NC(=O)c1cc(-c2ccc(Cl)cc2)nn(-c2cnn(C)c2)c1=O | > 10 | > 10 | > 10 | > 10 | > 10 | 98.8 | 100 | 100 | 105 | 98.5 | 96.2 | 90.4 | 94.9 | 92 | 95.5 | 96.7 | 107 | 108 | 99.8 | 91.9 | viability, T/C (second compound 0.1 µM, first compound 3.16 µM): 108%; viability, T/C (second compound 0.1 µM, first compound 10 µM): 61%; viability, T/C (second compound 0.316 µM, first compound 3.16 µM): 101%; viability, T/C (second compound 0.316 µM, first compound 10 µM): 63.3%; viability, T/C (second compound 1 µM, first compound 3.16 µM): 98.3%; viability, T/C (second compound 1 µM, first compound 10 µM): 63.8%; viability, T/C [16]: 103%; viability, T/C (second compound 3.16 µM, first compound 3.16 µM): 104%; viability, T/C (second compound 3.16 µM, first compound 10 µM): 64.2%; viability, T/C [17]: 104%; viability, T/C [18]: 97.5%; viability, T/C [19]: 95.1%; viability, T/C [20]: 87.5%; viability, T/C (second compound 10 µM, first compound 3.16 µM): 81.2%; viability, T/C (second compound 10 µM, first compound 10 µM): 55.2%
